From patent US9120756B2, “Substituted phenylureas and phenylamides as vanilloid receptor ligands” (Gruenenthal GmbH, priority 2009, dated 2015)

Tests used:
Format in all cases: cell-based
[1] = biological target: rat-species vanilloid receptor 1 (VR1/TRPV1) (Rattus norvegicus (Rat), UniProt O35433); experiment: FLIPR Ca2+ influx assay on rat dorsal root ganglia cells, capsaicin stimulus (method I); details: for Ki: capsaicin (Cap)
Description: (§1) The agonistic or antagonistic effect of the substances to be tested on the rat-species vanilloid receptor 1 (VR1/TRPV1) can be determined using the following assay. In this assay, the influx of Ca^2+ through the receptor channel is quantified with the aid of a Ca^2+-sensitive dye (type Fluo-4, Molecular Probes Europe BV, Leiden, the Netherlands) in a fluorescent imaging plate reader (FLIPR, Molecular Devices, Sunnyvale, USA).
Complete medium: 50 ml HAMS F12 nutrient mixture (Gibco Invitrogen GmbH, Karlsruhe, Germany) with
10% by volume of FCS (foetal calf serum, Gibco Invitrogen GmbH, Karlsruhe, Germany, heat-inactivated);
2 mM L-glutamine (Sigma, Munich, Germany);
1% by weight of AA solution (antibiotic/antimyotic solution, PAA, Pasching, Austria) and 25 ng/ml NGF medium (2.5 S, Gibco Invitrogen GmbH, Karlsruhe, Germany)
Cell culture plate: Poly-D-lysine-coated, black 96-well plates having a clear base (96-well black/clear plate, BD Biosciences, Heidelberg, Germany) are additionally coated with laminin (Gibco Invitrogen GmbH, Karlsruhe, Germany), the laminin being diluted with PBS (Ca—Mg-free PBS, Gibco Invitrogen GmbH, Karlsruhe, Germany) to a concentration of 100 μg/ml. Aliquots having a laminin concentration of 100 μg/ml are removed and stored at −20° C. The aliquots are diluted with PBS in a ratio of 1:10 to 10 μg/ml of laminin and respectively 50 μL of the solution are pipetted into a recess in the cell culture plate. The cell culture plates are incubated for at least two hours at 37° C., the excess solution is removed by suction and the recesses are each washed twice with PBS. The coated cell culture plates are stored with excess PBS which is not removed until just before the feeding of the cells.
The vertebral column is removed from decapitated rats and placed immediately into cold HBSS buffer (Hank's buffered saline solution, Gibco Invitrogen GmbH, Karlsruhe, Germany), i.e. buffer located in an ice bath, mixed with 1% by volume (percent by volume) of an AA solution (antibiotic/antimyotic solution, PAA, Pasching, Austria). The vertebral column is cut longitudinally and removed together with fasciae from the vertebral canal. Subsequently, the dorsal root ganglia (DRG) are removed and again stored in cold HBSS buffer mixed with 1% by volume of an AA solution. The DRG, from which all blood remnants and spinal nerves have been removed, are transferred in each case to 500 μL of cold type 2 collagenase (PAA, Pasching, Austria) and incubated for 35 minutes at 37° C. After the addition of 2.5% by volume of trypsin (PAA, Pasching, Austria), incubation is continued for 10 minutes at 37° C. After complete incubation, the enzyme solution is carefully pipetted off and 500 μL of complete medium are added to each of the remaining DRG. […] The contents of each Falcon tube are respectively filtered through a 70 μm Falcon filter element and centrifuged for 10 minutes at 1,200 rpm and RT. The resulting pellet is respectively taken up in 250 μL of complete medium and the cell count is determined.
The number of cells in the suspension is set to 3×10^5 per ml and 150 μL of this suspension are in each case introduced into a recess in the cell culture plates coated as described hereinbefore. […] Subsequently, the cells are loaded with 2 μM of Fluo-4 and 0.01% by volume of Pluronic F127 (Molecular Probes Europe BV, Leiden, the Netherlands) in HBSS buffer (Hank's buffered saline solution, Gibco Invitrogen GmbH, Karlsruhe, Germany) for 30 min at 37° C., washed 3 times with HBSS buffer and after further incubation for 15 minutes at RT used for Ca^2+ measurement in a FLIPR assay. The Ca^2+-dependent fluorescence is in this case measured before and after the addition of substances (λex=488 nm, λem=540 nm). Quantification is carried out by measuring the highest fluorescence intensity (FC, fluorescence counts) over time.
The FLIPR protocol consists of 2 substance additions.

[2] = biological target: T1, hVR1 (Homo sapiens (Human), UniProt Q8NER1); experiment: FLIPR assay human VR1, 45° C. stimulus; design: key to IC50 (human being) 45° C. column: result in words (AG): AG=agonist; pAG=partial agonist; NE=no effect; details: for IC50: read-out: IC50 (human being) [nM], 45° C.
T1 sequence (Q8NER1 whole entry): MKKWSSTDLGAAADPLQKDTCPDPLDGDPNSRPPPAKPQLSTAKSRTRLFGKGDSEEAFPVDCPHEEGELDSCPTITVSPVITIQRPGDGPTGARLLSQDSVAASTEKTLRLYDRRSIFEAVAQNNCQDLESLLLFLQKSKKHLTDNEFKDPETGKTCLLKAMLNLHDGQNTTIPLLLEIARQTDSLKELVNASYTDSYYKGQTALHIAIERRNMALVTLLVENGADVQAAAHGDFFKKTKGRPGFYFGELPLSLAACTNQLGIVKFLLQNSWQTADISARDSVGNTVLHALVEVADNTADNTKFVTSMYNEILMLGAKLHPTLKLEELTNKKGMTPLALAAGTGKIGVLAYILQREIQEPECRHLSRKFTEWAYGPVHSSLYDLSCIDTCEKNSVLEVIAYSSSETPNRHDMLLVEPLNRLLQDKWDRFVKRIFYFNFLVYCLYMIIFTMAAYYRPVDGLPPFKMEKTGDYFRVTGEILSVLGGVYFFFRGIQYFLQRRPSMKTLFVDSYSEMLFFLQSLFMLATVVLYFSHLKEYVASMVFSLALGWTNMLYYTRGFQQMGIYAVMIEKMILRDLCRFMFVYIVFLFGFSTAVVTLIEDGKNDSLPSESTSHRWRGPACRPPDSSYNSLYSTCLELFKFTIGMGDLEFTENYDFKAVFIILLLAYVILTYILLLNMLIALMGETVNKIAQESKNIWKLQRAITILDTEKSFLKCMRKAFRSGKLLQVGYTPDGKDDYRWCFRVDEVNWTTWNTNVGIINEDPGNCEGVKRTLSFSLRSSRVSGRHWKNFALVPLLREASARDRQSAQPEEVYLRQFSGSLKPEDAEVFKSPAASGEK
Source text: as §1, with “the” for “the rat-species”, “(VR1)” for “(VR1/TRPV1)”, “can also” for “can”, “the” for “the receptor”
Chinese hamster ovary cells (CHO K1 cells, European Collection of Cell Cultures (ECACC) United Kingdom) are stably transfected with the VR1 gene. For functional testing, these cells are plated out on poly-D-lysine-coated black 96-well plates having a clear base (BD Biosciences, Heidelberg, Germany) at a density of 25,000 cells/well. The cells are incubated overnight at 37° C. and 5% CO2 in a culture medium (Ham's F12 nutrient mixture, 10% by volume of FCS (foetal calf serum), 18 μg/ml of L-proline). The next day the cells are incubated with Fluo-4 (Fluo-4 2 μM, 0.01% by volume of Pluronic F127, Molecular Probes in HBSS (Hank's buffered saline solution), Gibco Invitrogen GmbH, Karlsruhe, Germany) for 30 minutes at 37° C. Subsequently, the plates are washed three times with HBSS buffer and after further incubation for 15 minutes at RT used for Ca^2+ measurement in a FLIPR assay. The Ca^2+-dependent fluorescence is measured before and after the addition of the substances to be tested (λex wavelength=488 nm, λem=540 nm). Quantification is carried out by measuring the highest fluorescence intensity (FC, fluorescence counts) over time.
The FLIPR protocol consists of 2 substance additions. […]
Desensitising agonists and antagonists led to suppression of the Ca^2+ influx.
Ki values for the test substances were obtained by conversion by means of the Cheng-Prusoff equation (Cheng, Prusoff; Biochem. Pharmacol. 22, 3099-3108, 1973).

[3] = biological target: T1, hVR1; experiment: FLIPR Ca2+ influx assay on CHO K1 cells transfected with the VR1 gene, capsaicin stimulus (method II); design: key to Ki (human being) Cap: result in words (NE / AG): AG=agonist; pAG=partial agonist; NE=no effect; details: for Ki: capsaicin (Cap), read-out: Ki (human being) [nM] Cap
[4] = biological target: T1, hVR1; experiment: FLIPR assay hVR1, after pH stimulus; design: key to IC50 (human being) hVR1 pH: result in words (NE / AG): AG=agonist; pAG=partial agonist; NE=no effect; details: for inhibition at 10 µM: read-out: IC50 (human being) hVR1 pH: inhibition (as a percentage) @ 10 μM, inhibition determined at 10 μM; for IC50: read-out: IC50 (human being) hVR1 [nM], pH
Description: (§2) In this assay, the influx of Ca^2+ through the channel is quantified with the aid of a Ca^2+-sensitive dye (type Fluo-4, Molecular Probes Europe BV, Leiden, the Netherlands) in a fluorescent imaging plate reader (FLIPR, Molecular Devices, Sunnyvale, USA). Chinese hamster ovary cells (CHO K1 cells, European Collection of Cell Cultures (ECACC) United Kingdom) are stably transfected with the VR1 gene. For functional testing, these cells are plated out on poly-D-lysine-coated black 96-well plates having a clear base (BD Biosciences, Heidelberg, Germany) at a density of 25,000 cells/well. […] Subsequently, the plates are washed three times with HBSS buffer and after further incubation for 15 minutes at RT used for Ca^2+ measurement in a FLIPR assay. […] Quantification is carried out by measuring the highest fluorescence intensity (FC, fluorescence counts) over time. The FLIPR protocol consists of 2 substance additions. […] Desensitising agonists and antagonists led to suppression of the Ca^2+ influx. […] Ki values for the test substances were obtained by conversion by means of the Cheng-Prusoff equation (Cheng, Prusoff; Biochem. Pharmacol. 22, 3099-3108, 1973).

[5] = biological target: T1, hVR1; experiment: FLIPR assay human VR1, NADA (N-arachidonoyl dopamine) stimulus; design: key: AG=agonist; pAG=partial agonist; NE=no effect
Description: as §2

Sequence of rat-species vanilloid receptor 1 (VR1/TRPV1) (O35433 whole entry): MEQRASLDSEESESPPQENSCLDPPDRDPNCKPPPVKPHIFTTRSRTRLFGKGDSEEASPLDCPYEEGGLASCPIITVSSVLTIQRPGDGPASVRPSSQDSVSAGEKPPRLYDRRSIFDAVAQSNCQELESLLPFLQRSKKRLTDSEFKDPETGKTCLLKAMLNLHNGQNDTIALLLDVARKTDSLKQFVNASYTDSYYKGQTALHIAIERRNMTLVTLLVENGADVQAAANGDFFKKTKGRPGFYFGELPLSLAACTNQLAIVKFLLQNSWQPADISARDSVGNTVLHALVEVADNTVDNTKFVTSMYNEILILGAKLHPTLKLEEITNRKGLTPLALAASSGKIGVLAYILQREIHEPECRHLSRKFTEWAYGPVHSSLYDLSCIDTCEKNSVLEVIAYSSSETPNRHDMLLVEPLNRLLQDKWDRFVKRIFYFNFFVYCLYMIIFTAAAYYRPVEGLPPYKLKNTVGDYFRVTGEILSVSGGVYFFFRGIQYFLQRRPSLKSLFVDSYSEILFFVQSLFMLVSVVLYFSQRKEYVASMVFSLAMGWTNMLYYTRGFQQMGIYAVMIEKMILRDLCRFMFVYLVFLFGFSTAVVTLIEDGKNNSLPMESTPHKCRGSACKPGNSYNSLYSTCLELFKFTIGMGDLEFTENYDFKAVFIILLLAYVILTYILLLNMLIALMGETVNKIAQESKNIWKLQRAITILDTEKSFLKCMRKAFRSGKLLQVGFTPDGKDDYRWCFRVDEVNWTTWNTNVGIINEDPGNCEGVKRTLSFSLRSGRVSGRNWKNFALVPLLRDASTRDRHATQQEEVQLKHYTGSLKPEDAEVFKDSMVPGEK

SMILES	Ki [1]	Ki [3]	IC50 [2]	inhibition at 10 µM [4]	other results
CC(C(=O)NCc1cc(C(F)(F)F)nn1-c1cccc(Cl)c1)c1ccc(C(F)(F)F)c(F)c1 (stereo not shown) [Example 141, N-((1-(3-chlorophenyl)-3-(trifluoromethyl)-1H-pyrazol-5-yl)methyl)-2-(3-fluoro-4-(trifluoromethyl)phenyl)propanamide]	25.5 nM	13.6 nM			inhibition at 2.5 µM ([2]; inhibition determined at 2.5 μM, read-out: IC50 (human being) 45° C. column: inhibition (as a percentage) @ 2.5 μM): 28%
CCCCCCn1nc(C(C)(C)C)cc1CNC(=O)C(C)c1ccc(NS(C)(=O)=O)c(F)c1 (stereo not shown) [Example 5, N-((3-tert-butyl-1-hexyl-1H-pyrazol-5-yl)methyl)-2-(3-fluoro-4-(methylsulphonamido)phenyl)propanamide]		50.2 nM	282 nM	36%	inhibition at 1 µM ([1]; read-out: Ki (rat) Cap column: inhibition (as a percentage) @ 1 μM, capsaicin, inhibition determined at 1 μM): 76%
CC(C(=O)NCc1cc(C(C)(C)C)nn1-c1ccc(F)c(Cl)c1)c1ccc(NS(C)(=O)=O)c(F)c1 (stereo not shown) [Example 18, N-((3-tert-butyl-1-(3-chloro-4-fluorophenyl)-1H-pyrazol-5-yl)methyl)-2-(3-fluoro-4-(methylsulphonamido)phenyl)propanamide]		0.5 nM	7 nM	31%	
CC(C(=O)NCc1cc(C(C)(C)C)nn1-c1cccc(Cl)c1)c1cc(F)c(NS(C)(=O)=O)c(F)c1 (stereo not shown) [Example 29, N-((3-tert-butyl-1-(3-chlorophenyl)-1H-pyrazol-5-yl)methyl)-2-(3,5-difluoro-4-(methylsulphonamido)phenyl)propanamide]		1.2 nM		42%	inhibition at 2 µM ([2]; read-out: IC50 (human being) 45° C. column: inhibition (as a percentage) @ 2 μM, inhibition determined at 2 μM): 34%
C[C@H](C(=O)NCc1cc(C(F)(F)F)nn1-c1ccc(Cl)cc1)c1ccc(NS(C)(=O)=O)c(F)c1 [Example 23, (S)-N-((1-(4-chlorophenyl)-3-(trifluoromethyl)-1H-pyrazol-5-yl)methyl)-2-(3-fluoro-4-(methylsulphonamido)phenyl)propanamide]	0.4 nM	0.3 nM	16.1 nM		IC50 [4]: 47.1 nM
CC(C(=O)NCc1cc(C(C)(C)C)nn1-c1cccc(Cl)c1)c1ccc(S(=O)(=O)N(C)C)c(F)c1 (stereo not shown) [Example 49, N-((3-tert-butyl-1-(3-chlorophenyl)-1H-pyrazol-5-yl)methyl)-2-(4-(N,N-dimethylsulphamoyl)-3-fluorophenyl)propanamide]					Ki (human being) NADA column: result in words (AG) [5]: AG; IC50 (human being) 45° C. column: result in words (AG) [2]: AG; Ki (human being) Cap: result in words (NE / AG) ([3]; capsaicin): AG; IC50 (human being) hVR1 pH: result in words (NE / AG) [4]: AG
CC(C(=O)NCc1cc(C(F)(F)F)nn1-c1ccc(Cl)cc1)c1ccc(NS(C)(=O)=O)c(F)c1 (stereo not shown) [Example 21, N-((1-(4-chlorophenyl)-3-(trifluoromethyl)-1H-pyrazol-5-yl)methyl)-2-(3-fluoro-4-(methylsulphonamido)phenyl)propanamide]	1.2 nM	0.3 nM	27 nM		IC50 [4]: 179 nM
